From US9969823B1, “Synthesis and polymerization of vinyl triazolium ionic liquids” (United States Department of Energy, priority 2011, dated 2018) come the findings set out here.

Like-named read-outs stand apart in the source and are kept apart here.

The data set can be described thus: Solubility of ionic liquid monomers (IL) and their polymers (PIL) in solvents. In kind it is physicochemical. The following applies: for solubility: 10 mg/ml, IL (monomer), first symbol; for solubility in water: IL monomers.
The mark [1] stands for this setting: organic solvent or mixture, ACN, read-out: Solubility (IL/PIL) ACN.
Where [2] appears, read: organic solvent or mixture, Acetone, read-out: Solubility (IL/PIL) Acetone.
Where [3] appears, read: organic solvent or mixture, DCM, read-out: Solubility (IL/PIL) DCM.
The mark [4] stands for this setting: organic solvent or mixture, DMF, read-out: Solubility (IL/PIL) DMF.
[5] abbreviates: organic solvent or mixture, DMSO, read-out: Solubility (IL/PIL) DMSO.
[6] abbreviates: organic solvent or mixture, Ethyl acetate, read-out: Solubility (IL/PIL) Ethyl acetate.
Where [7] appears, read: organic solvent or mixture, Hexanes, read-out: Solubility (IL/PIL) Hexanes.
[8] abbreviates: organic solvent or mixture, MeOH, read-out: Solubility (IL/PIL) MeOH.
The mark [9] stands for this setting: water, H2O, read-out: Solubility (IL/PIL) H2O.

Turning to `C=Cc1cn(Cc2ccccc2)n[n+]1C` [BMVT Tf2N, 1-Benzyl-3-methyl-4-vinyl-triazolium bis(trifluoromethansulfonyl)amide], the solubility runs as follows: under setting [1], more than 10000 µg/mL; under setting [2], more than 10000 µg/mL; under setting [3], more than 10000 µg/mL; under setting [4], more than 10000 µg/mL; under setting [5], more than 10000 µg/mL; under setting [6], more than 10000 µg/mL. Besides, the solubility is less than 10000 µg/mL under setting [7], more than 10000 µg/mL under setting [8] and less than 10000 µg/mL under setting [9].
Consider `C=Cc1cn(CCCCCCCCCC)n[n+]1C` [DMVT, 1-Decyl-3-methyl-4-vinyl-triazolium bis(trifluoromethansulfonyl)amide], for which the solubility by setting is: under setting [1], more than 10000 µg/mL; under setting [2], more than 10000 µg/mL; under setting [3], less than 10000 µg/mL; under setting [4], more than 10000 µg/mL; under setting [5], more than 10000 µg/mL; under setting [6], more than 10000 µg/mL. The solubility under setting [7] was less than 10000 µg/mL, the solubility under setting [8] is more than 10000 µg/mL and the solubility under setting [9] is less than 10000 µg/mL.
For `C=Cc1cn(CCO)n[n+]1C` [EtOHMVT, 2-(3-Methyl-4vinyl-triazolium-1-yl)ethanol bis(trifluoromethansulfonyl)amide], the solubility in water entry (water) is “soluble”. In addition, the solubility is, setting by setting: under setting [1], more than 10000 µg/mL; under setting [2], more than 10000 µg/mL; under setting [3], more than 10000 µg/mL; under setting [4], more than 10000 µg/mL; under setting [5], more than 10000 µg/mL; under setting [6], more than 10000 µg/mL. Moreover, the solubility reads like this: under setting [7], less than 10000 µg/mL; under setting [8], more than 10000 µg/mL; under setting [9], more than 10000 µg/mL.
`C=Cc1cn(CCCCCC)n[n+]1C` [HMVT, 1-Hexyl-3-methyl-4-vinyl-triazolium bis(trifluoromethansulfonyl)amide]: the solubility under setting [1] is more than 10000 µg/mL; the solubility under setting [2] was more than 10000 µg/mL; the solubility under setting [3] was more than 10000 µg/mL; the solubility under setting [4] was more than 10000 µg/mL; the solubility under setting [5] is more than 10000 µg/mL; the solubility under setting [6] was more than 10000 µg/mL. For the same compound, the solubility under setting [7] is less than 10000 µg/mL, the solubility under setting [8] was more than 10000 µg/mL and the solubility under setting [9] is less than 10000 µg/mL.
As for `C=Cc1cn(-c2ccccc2)n[n+]1C` [PMVT Tf2N, 1-Phenyl-3-methyl-4-vinyl-triazolium bis(trifluoromethansulfonyl)amide], the solubility under setting [1] was more than 10000 µg/mL; the solubility under setting [2] is more than 10000 µg/mL; the solubility under setting [3] was more than 10000 µg/mL; the solubility under setting [4] is more than 10000 µg/mL; the solubility under setting [5] is more than 10000 µg/mL; the solubility under setting [6] is more than 10000 µg/mL. Moreover, the solubility runs as follows: under setting [7], less than 10000 µg/mL; under setting [8], more than 10000 µg/mL; under setting [9], less than 10000 µg/mL.
In the case of `C=Cc1cn(CCOCCOCCOC)n[n+]1C` [TEGMVT, 1-TEG-3-methyl-4-vinyl-triazolium bis(trifluoromethansulfonyl)amide], the solubility in water result (water) is recorded as “soluble”. Moreover, the solubility under setting [1] is more than 10000 µg/mL; the solubility under setting [2] is more than 10000 µg/mL; the solubility under setting [3] was more than 10000 µg/mL; the solubility under setting [4] is more than 10000 µg/mL; the solubility under setting [5] was more than 10000 µg/mL; the solubility under setting [6] was more than 10000 µg/mL. Besides, the solubility by setting is: under setting [7], less than 10000 µg/mL; under setting [8], more than 10000 µg/mL; under setting [9], more than 10000 µg/mL.
